# Measured values from patent publication US20240165244A1 (Prelude Therapeutics Incorporated, priority 2022, published 2024).
# Experiments:
# [1] = molecular target: T1, SMARCA4 (Homo sapiens, UniProt P51532); test: SMARCA4 HiBiT degradation assay in HeLa cells; assay type: cell-based; details: 18 hours, highest concentration 10 μM
# T1 construct: SMARCA4-HiBiT knock-in Hela monoclonal cell (CS3023226); host or cells: HeLa monoclonal cells with heterozygous HiBiT knock-in at the endogenous SMARCA4 locus
# Summary of the method: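 HeLa monoclonal cells with HiBiT knocked into SMARCA4 were seeded at 2500 cells/well, dosed with compound and incubated 18 hours at 37° C. HiBiT signal reported remaining SMARCA4 protein, and values came from curve fitting.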
# [2] = molecular target: T2, SMARCA2 (Homo sapiens, UniProt P51531); test: SMARCA2 HiBiT degradation assay in HeLa cells; assay type: cell-based; details: 18 hours, highest concentration 10 μM
# T2 construct: SMARCA2-HiBiT knock-in Hela monoclonal cell (CS302366); host or cells: HeLa monoclonal cells with heterozygous HiBiT knock-in at the endogenous SMARCA2 locus
# Summary of the method: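 HeLa cells carrying a heterozygous C-terminal HiBiT knock-in on SMARCA2 were seeded at 2500 cells/well. They were treated with 3-fold dilution series, top concentration 10 μM, for 18 h at 37 °C. Remaining SMARCA2-HiBiT was measured by Nano-Glo HiBiT lytic luminescence after 30-60 min at RT, followed by curve fitting.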
# T2 sequence (P51531 whole entry): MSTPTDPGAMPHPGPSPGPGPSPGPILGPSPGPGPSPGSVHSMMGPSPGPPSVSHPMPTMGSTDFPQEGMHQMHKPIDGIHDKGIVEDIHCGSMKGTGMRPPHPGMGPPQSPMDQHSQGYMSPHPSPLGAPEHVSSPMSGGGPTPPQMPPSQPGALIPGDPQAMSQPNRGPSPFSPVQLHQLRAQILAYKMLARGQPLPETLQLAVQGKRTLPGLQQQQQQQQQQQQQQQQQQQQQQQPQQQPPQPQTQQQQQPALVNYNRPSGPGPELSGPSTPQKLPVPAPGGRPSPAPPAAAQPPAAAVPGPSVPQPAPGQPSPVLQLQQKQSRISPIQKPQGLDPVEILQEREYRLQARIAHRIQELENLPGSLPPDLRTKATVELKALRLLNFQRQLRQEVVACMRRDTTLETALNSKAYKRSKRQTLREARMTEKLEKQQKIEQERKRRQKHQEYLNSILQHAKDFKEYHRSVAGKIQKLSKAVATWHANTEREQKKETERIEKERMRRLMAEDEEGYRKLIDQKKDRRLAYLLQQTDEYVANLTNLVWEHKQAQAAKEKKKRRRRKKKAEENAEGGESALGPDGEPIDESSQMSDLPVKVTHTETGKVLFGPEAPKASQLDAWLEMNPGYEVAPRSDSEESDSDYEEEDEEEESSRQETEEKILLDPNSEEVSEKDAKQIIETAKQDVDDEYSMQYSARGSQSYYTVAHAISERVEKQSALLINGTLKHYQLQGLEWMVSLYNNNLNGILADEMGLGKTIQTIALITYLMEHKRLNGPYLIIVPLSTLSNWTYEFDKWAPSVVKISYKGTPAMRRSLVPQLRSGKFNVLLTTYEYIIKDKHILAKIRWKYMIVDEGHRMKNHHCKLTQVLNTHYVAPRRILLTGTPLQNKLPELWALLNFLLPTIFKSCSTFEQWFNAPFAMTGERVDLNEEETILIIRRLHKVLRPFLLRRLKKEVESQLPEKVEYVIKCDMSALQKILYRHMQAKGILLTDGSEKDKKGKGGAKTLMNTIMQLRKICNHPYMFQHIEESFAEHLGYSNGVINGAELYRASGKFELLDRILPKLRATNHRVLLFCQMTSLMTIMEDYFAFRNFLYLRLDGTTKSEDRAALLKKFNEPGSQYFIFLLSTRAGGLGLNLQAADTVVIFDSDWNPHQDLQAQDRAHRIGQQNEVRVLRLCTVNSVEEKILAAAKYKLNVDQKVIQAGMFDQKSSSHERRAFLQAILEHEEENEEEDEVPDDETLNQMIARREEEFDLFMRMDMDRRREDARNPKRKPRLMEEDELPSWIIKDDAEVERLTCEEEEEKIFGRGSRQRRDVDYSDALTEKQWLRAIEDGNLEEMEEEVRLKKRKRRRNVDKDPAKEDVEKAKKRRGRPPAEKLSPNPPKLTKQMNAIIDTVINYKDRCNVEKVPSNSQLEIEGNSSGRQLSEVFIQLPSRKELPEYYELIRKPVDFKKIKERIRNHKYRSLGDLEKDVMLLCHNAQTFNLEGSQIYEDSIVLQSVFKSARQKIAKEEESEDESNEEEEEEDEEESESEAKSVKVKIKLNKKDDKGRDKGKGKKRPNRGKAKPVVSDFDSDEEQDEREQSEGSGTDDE
# T1 sequence (P51532 whole entry): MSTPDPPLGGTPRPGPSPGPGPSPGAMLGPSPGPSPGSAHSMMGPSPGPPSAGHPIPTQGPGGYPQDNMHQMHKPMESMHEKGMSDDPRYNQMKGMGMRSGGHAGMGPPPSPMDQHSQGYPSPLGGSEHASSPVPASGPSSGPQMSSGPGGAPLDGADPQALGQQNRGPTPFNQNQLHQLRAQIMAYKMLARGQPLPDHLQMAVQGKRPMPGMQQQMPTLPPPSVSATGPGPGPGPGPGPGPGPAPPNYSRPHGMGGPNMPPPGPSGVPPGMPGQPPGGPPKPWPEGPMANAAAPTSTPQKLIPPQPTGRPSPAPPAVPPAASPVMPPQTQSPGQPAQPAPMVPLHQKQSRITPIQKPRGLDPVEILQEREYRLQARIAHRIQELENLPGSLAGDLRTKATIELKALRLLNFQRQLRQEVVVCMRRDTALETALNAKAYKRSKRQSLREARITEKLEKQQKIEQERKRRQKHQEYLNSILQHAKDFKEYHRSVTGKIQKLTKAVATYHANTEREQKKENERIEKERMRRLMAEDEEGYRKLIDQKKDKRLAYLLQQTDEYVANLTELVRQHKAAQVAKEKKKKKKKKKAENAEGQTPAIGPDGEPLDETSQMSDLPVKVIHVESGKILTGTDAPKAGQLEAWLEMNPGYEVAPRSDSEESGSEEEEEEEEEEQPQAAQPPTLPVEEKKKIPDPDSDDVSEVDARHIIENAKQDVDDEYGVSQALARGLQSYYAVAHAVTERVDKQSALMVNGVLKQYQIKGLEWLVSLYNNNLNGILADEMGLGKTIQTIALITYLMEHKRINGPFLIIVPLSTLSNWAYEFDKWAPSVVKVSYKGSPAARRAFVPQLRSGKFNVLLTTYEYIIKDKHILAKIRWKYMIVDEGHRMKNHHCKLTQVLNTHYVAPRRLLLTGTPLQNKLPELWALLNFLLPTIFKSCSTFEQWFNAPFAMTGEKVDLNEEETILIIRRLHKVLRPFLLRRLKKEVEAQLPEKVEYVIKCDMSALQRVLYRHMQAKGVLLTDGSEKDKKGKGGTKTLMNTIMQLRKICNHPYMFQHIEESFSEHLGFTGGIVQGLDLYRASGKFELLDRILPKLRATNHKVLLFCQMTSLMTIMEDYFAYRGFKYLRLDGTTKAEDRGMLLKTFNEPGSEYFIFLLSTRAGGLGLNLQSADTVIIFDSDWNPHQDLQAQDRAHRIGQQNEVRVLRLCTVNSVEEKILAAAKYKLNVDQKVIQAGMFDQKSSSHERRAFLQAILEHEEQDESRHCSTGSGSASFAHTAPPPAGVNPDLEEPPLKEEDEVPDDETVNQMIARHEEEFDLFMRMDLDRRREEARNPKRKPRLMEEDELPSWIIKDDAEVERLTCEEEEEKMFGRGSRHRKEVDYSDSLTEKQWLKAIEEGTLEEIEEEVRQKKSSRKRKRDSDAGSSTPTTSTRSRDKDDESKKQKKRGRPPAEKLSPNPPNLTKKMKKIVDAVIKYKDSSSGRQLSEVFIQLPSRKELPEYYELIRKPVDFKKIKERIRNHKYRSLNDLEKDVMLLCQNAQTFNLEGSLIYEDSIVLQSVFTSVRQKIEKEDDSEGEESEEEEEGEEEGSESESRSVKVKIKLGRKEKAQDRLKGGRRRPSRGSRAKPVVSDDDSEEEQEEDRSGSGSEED
Structure (SMILES),DC50 [1],Dmax [1],DC50 [2],Dmax [2]
"O=C1CCC(N2Cc3ccc(N4CCN(Cc5ccc(O[C@@H]6C[C@@H]7CNc8nnc(-c9cc(F)cc(F)c9O)cc8N7C6)cc5OC(F)(F)F)CC4)cc3C2=O)C(=O)N1 (stereo partly drawn) [Example 24, 3-(6-(4-(4-(((6aR,8R)-2-(3,5-difluoro-2-hydroxyphenyl)-5,6,6a,7,8,9-hexahydropyrrolo[1′,2′:4,5]pyrazino[2,3-c]pyridazin-8-yl)oxy)-2-(trifluoromethoxy)benzyl)piperazin-1-yl)-1-oxoisoindolin-2-yl)piperidine-2,6-dione]",> 1000 nM,< 50%,< 100 nM,50 to 75%
"Cc1nc(O[C@H]2CN3c4cc(-c5cccc(F)c5O)nnc4NC[C@]3(C(F)F)C2)c(C)nc1CN1CCN(c2ccc3c(c2)C(=O)N([C@H]2CCC(=O)NC2=O)C3)CC1 [Example 48, (S)-3-(6-(4-((5-(((6aS,8R)-6a-(difluoromethyl)-2-(3-fluoro-2-hydroxyphenyl)-5,6,6a,7,8,9-hexahydropyrrolo[1′,2′:4,5]pyrazino[2,3-c]pyridazin-8-yl)oxy)-3,6-dimethylpyrazin-2-yl)methyl)piperazin-1-yl)-1-oxoisoindolin-2-yl)piperidine-2,6-dione]",100 to 1000 nM,< 50%,< 100 nM,50 to 75%
"Cc1nc(O[C@H]2CN3c4cc(-c5cccc(F)c5O)nnc4NC[C@]3(C(F)F)C2)nc(C)c1CN1CCN(c2ccc3c(c2)C(=O)N(C2CCC(=O)NC2=O)C3)CC1 (stereo partly drawn) [Example 41, 3-(6-(4-((2-(((6aS,8R)-6a-(Difluoromethyl)-2-(3-fluoro-2-hydroxy-phenyl)-5,6,6a,7,8,9-hexahydropyrrolo [1′,2′:4,5]pyrazino[2,3-c]pyridazin-8-yl)oxy)-4,6-dimethylpyrimidin-5-yl)methyl)piperazin-1-yl)-1-oxoisoindolin-2-yl)piperidine-2,6-dione]",100 to 1000 nM,< 50%,< 100 nM,> 75%
"O=C1CCC(N2Cc3ccc(N4CCN(Cc5ccc(O[C@@H]6C[C@@H]7CNc8nnc(-c9cc(F)cc(Cl)c9O)cc8N7C6)cc5)CC4)cc3C2=O)C(=O)N1 (stereo partly drawn) [Example 22, 3-(6-(4-(4-(((6aR,8R)-2-(3-chloro-5-fluoro-2-hydroxyphenyl)-5,6,6a,7,8,9-hexahydropyrrolo[1′,2′:4,5]pyrazino[2,3-c]pyridazin-8-yl)oxy)benzyl)piperazin-1-yl)-1-oxoisoindolin-2-yl)piperidine-2,6-dione]",< 100 nM,> 75%,< 100 nM,> 75%
"Cc1cc(CN2CCN(c3ccc4c(c3)C(=O)N(C3CCC(=O)NC3=O)C4)CC2)ccc1O[C@@H]1C[C@@H]2CNc3nnc(-c4cc(F)cc(F)c4O)cc3N2C1 (stereo partly drawn) [Example 2, 3-(6-(4-(4-(((6aR,8R)-2-(3,5-difluoro-2-hydroxyphenyl)-5,6,6a,7,8,9-hexahydropyrrolo[1′,2′:4,5]pyrazino[2,3-c]pyridazin-8-yl)oxy)-3-methylbenzyl)piperazin-1-yl)-1-oxoisoindolin-2-yl)piperidine-2,6-dione]",< 100 nM,> 75%,< 100 nM,> 75%
"Cc1cc(O[C@@H]2C[C@@H]3CNc4nnc(-c5cccc(F)c5O)cc4N3C2)ccc1CN1CCN(c2ccc3c(c2)C(=O)N(C2CCC(=O)NC2=O)C3)CC1 (stereo partly drawn) [Example 11, 3-(6-(4-(4-(((6aR,8R)-2-(3-fluoro-2-hydroxyphenyl)-5,6,6a,7,8,9-hexahydropyrrolo[1′,2′:4,5]pyrazino[2,3-c]pyridazin-8-yl)oxy)-2-methylbenzyl)piperazin-1-yl)-1-oxoisoindolin-2-yl)piperidine-2,6-dione]",< 100 nM,50 to 75%,< 100 nM,> 75%
"CC(C)c1nc(O[C@H]2CN3c4cc(-c5cccc(F)c5O)nnc4NC[C@]3(C(F)F)C2)ncc1CN1CCN(c2ccc3c(c2)C(=O)N(C2CCC(=O)NC2=O)C3)CC1 (stereo partly drawn) [Example 50, 3-(6-(4-((2-(((6aS,8R)-6a-(difluoromethyl)-2-(3-fluoro-2-hydroxyphenyl)-5,6,6a,7,8,9-hexahydropyrrolo [1′,2′:4,5]pyrazino[2,3-c]pyridazin-8-yl)oxy)-4-isopropylpyrimidin-5-yl)methyl)piperazin-1-yl)-1-oxoisoindolin-2-yl)piperidine-2,6-dione]",< 100 nM,50 to 75%,< 100 nM,> 75%
"Cc1nc(CN2CCC(c3ccc4c(c3)C(=O)N([C@H]3CCC(=O)NC3=O)C4)CC2)cnc1O[C@H]1CN2c3cc(-c4cccc(F)c4O)nnc3NC[C@@]2(CF)C1 [Example 65, (S)-3-(6-(1-((5-(((6aR,8R)-2-(3-Fluoro-2-hydroxyphenyl)-6a-(fluoromethyl)-5,6,6a,7,8,9-hexahydropyrrolo[1′,2′:4,5]pyrazino[2,3-c]pyridazin-8-yl)oxy)-6-methylpyrazin-2-yl)methyl)piperidin-4-yl)-1-oxoisoindolin-2-yl)piperidine-2,6-dione]",100 to 1000 nM,< 50%,< 100 nM,> 75%
"Cc1cc(O[C@@H]2C[C@@H]3CNc4nnc(-c5cc(F)cc(F)c5O)cc4N3C2)ncc1CN1CCC(c2ccc3c(c2)C(=O)N([C@H]2CCC(=O)NC2=O)C3)CC1 [Example 29, (S)-3-(6-(1-((6-(((6aR,8R)-2-(3,5-difluoro-2-hydroxyphenyl)-5,6,6a,7,8,9-hexahydropyrrolo[1′,2′:4,5]pyrazino[2,3-c]pyridazin-8-yl)oxy)-4-methylpyridin-3-yl)methyl)piperidin-4-yl)-1-oxoisoindolin-2-yl)piperidine-2,6-dione]",< 100 nM,50 to 75%,< 100 nM,> 75%
"Cc1nc(O[C@@H]2C[C@@H]3CNc4nnc(-c5cc(F)cc(F)c5O)cc4N3C2)ccc1CN1CCN(c2ccc3c(c2)C(=O)N([C@H]2CCC(=O)NC2=O)C3)CC1 [Example 30, (S)-3-(6-(4-((6-(((6aR,8R)-2-(3,5-difluoro-2-hydroxyphenyl)-5,6,6a,7,8,9-hexahydropyrrolo[1′,2′:4,5]pyrazino[2,3-c]pyridazin-8-yl)oxy)-2-methylpyridin-3-yl)methyl)piperazin-1-yl)-1-oxoisoindolin-2-yl)piperidine-2,6-dione]",< 100 nM,> 75%,< 100 nM,> 75%
"CC[C@@]12CNc3nnc(-c4cccc(F)c4O)cc3N1C[C@H](Oc1nc(C)c(CN3CCC(c4ccc5c(c4)C(=O)N([C@H]4CCC(=O)NC4=O)C5)CC3)c(C)n1)C2 [Example 102, (S)-3-(6-(1-((2-(((6aR,8R)-6a-ethyl-2-(3-fluoro-2-hydroxyphenyl)-5,6,6a,7,8,9-hexahydropyrrolo[1′,2′:4,5]pyrazino[2,3-c]pyridazin-8-yl)oxy)-4,6-dimethylpyrimidin-5-yl)methyl)piperidin-4-yl)-1-oxoisoindolin-2-yl)piperidine-2,6-dione]",> 1000 nM,< 50%,< 100 nM,> 75%
"Cc1cc(S[C@@H]2C[C@@H]3CNc4nnc(-c5cc(F)cc(F)c5O)cc4N3C2)ncc1CN1CCN(c2ccc3c(c2)C(=O)N([C@H]2CCC(=O)NC2=O)C3)CC1 [Example 38, (S)-3-(6-(4-((6-(((6aR,8R)-2-(3,5-difluoro-2-hydroxyphenyl)-5,6,6a,7,8,9-hexahydropyrrolo[1′,2′:4,5]pyrazino[2,3-c]pyridazin-8-yl)thio)-4-methylpyridin-3-yl)methyl)piperazin-1-yl)-1-oxoisoindolin-2-yl)piperidine-2,6-dione]",> 1000 nM,< 50%,< 100 nM,> 75%
"CC[C@@]12CNc3nnc(-c4cccc(C)c4O)cc3N1C[C@H](Oc1cnc(CN3CCC(c4ccc5c(c4)C(=O)N([C@H]4CCC(=O)NC4=O)C5)CC3)c(C)c1C)C2 [Example 95, (S)-3-(6-(1-((5-(((6aR,8R)-6a-ethyl-2-(2-hydroxy-3-methylphenyl)-5,6,6a,7,8,9-hexahydropyrrolo[1′,2′:4,5]pyrazino[2,3-c]pyridazin-8-yl)oxy)-3,4-dimethylpyridin-2-yl)methyl)piperidin-4-yl)-1-oxoisoindolin-2-yl)piperidine-2,6-dion]",> 1000 nM,< 50%,< 100 nM,> 75%
"CC[C@]12CNc3nnc(-c4cccc(C)c4O)cc3N1C[C@H](Oc1cnc(CN3CCC(c4ccc5c(c4)C(=O)N([C@H]4CCC(=O)NC4=O)C5)CC3)c(C)c1)C2 [Example 97, (S)-3-(6-(1-((5-(((6aS,8R)-6a-ethyl-2-(2-hydroxy-3-methylphenyl)-5,6,6a,7,8,9-hexahydropyrrolo[1′,2′:4,5]pyrazino[2,3-c]pyridazin-8-yl)oxy)-3-methylpyridin-2-yl)methyl)piperidin-4-yl)-1-oxoisoindolin-2-yl)piperidine-2,6-dione]",< 100 nM,50 to 75%,< 100 nM,> 75%
"Cc1c(CN2CCC(c3ccc4c(c3)C(=O)N([C@H]3CCC(=O)NC3=O)C4)CC2)cnc(O[C@H]2CN3c4cc(-c5cccc(F)c5O)nnc4NC[C@]3(C(F)F)C2)c1F [Example 89, (S)-3-(6-(1-((6-(((6aS,8R)-6a-(difluoromethyl)-2-(3-fluoro-2-hydroxyphenyl)-5,6,6a,7,8,9-hexahydropyrrolo[1′,2′:4,5]pyrazino[2,3-c]pyridazine-8-yl)oxy)-5-fluoro-4-methylpyridin-3-yl)methyl)piperidin-4-yl)-1-oxoisoindolin-2-yl)piperidine-2,6-dione]",< 100 nM,> 75%,< 100 nM,> 75%
